For test [1], the system named is N-VSMC. In words: [3H]thymidine incorporation (DNA synthesis) in N-VSMC cultures. Format: cell-based, chicken. The procedure: FIG. 1 is a graph illustrating homocysteine's effects on the growth of VSMC cultures. Confluent N-VSMC cultures were growth arrested by incubating cells with M199 medium containing 1 μg/ml BSA for 48 h, exposed to various concentrations of H[cys] (0.01-4000μM) for 30 h, pulse labeled for 6 h with 2 μCi/ml [^3H]-thymidine, and cell monolayers were washed twice with cold (0° C.) 10% trichloroacetic acid (TCA). The amount of [^3H]-thymidine incorporation was determined by scintillation spectrophotometry. Results are shown as the means of ±S.D.
FIGS. 2A-2C are graphs illustrating the effects of glutamate, homocysteic acid and NMDA on DNA synthesis in N-VSMC. N-VSMC were cultured and serum-deprived as described in “Experimental Procedures.” Cultures were treated with various concentrations of homocysteic acid (2A), NMDA (2B), or L-glutamate (2C) for 30 and pulsed 6h with [^3H] thymidine. All values are expressed as ±S.D. of six independent experiments completed in quadruplicate.
Smooth Muscle Culture: The thoracic (N) and abdominal (M) aorta of normal 16 and 18-day embryos were cleaned of fat, and the intima-media was isolated from the adventitia. The intima-media was enzymatically dispersed into a single cell suspensions by a combination of collagenase and elastase followed by trypsin. VSMC were placed in primary culture at a constant density of 2×10^4 cells/cm^2 in multiwell plates or 100 mm culture plates in Medium 199 supplemented with 10% fetal bovine serum (FMS) and 2 mM glutamine, in an atmosphere of 95% air: 5% Co2 at 37° C. Primary cultures were grown for 7 days before they were seeded into first passage at the same cell density and grown to confluence. Experiments were carried out between passages 3-6. Experimental conditions for all cells included 48 h in Medium 199 supplemented with 1% FBS prior to initiating and experiment.
DNA Synthesis: Growth factors were added directly to quiescent VSMCs in Medium 199 as described above. The cells were pulsed between 4-6 h with a final concentration of 2-5 μCi/ml [^3H]thymidine added at the times and for the periods indicated in the figure legends. The cells were washed, and the incorporation of [^3H]thymidine into acid insoluble material was determined as previously described. Den-Heijer, M. et al. (1996), Hyperhomocystinemia as a risk factor for deep-vein thrombosis. N. Eng. J. Med. 334(12):759-762.

Another test has as its system protein kinase C. Put plainly: Distribution of protein kinase C activity in N-VSMC fractions. Format: cell-based, chicken. The settings on record: 100 μM H[cys] for 60 min. The procedure:
FIGS. 6A-6C show the distribution of protein kinase C in the presence of H[cys], TPA and TGF β1. […] Cells were harvested and separated into cytosol membrane particulate and nuclear fractions, and PKC activity measured as described in Material and Methods. The data are reported as the mean ± standard error of eight separate determinations. (B) Immunolocalization of PKC epsilon in M- and N-VSMC. Cell cultures were plated and grown for three days prior to immunohistochemistry staining of PKC epsilon in the N-VSM (bottom) contrasted with the low levels of expression of the enzyme in M-VSMC (top). The staining can be seen in cytosol, nucleus and associated with intracellular fibers. (C) Use of PKC epsilon IgG to detect enzyme in M- and N-VSMC by western blot. The C-lane represents purified recombinant PKC epsilon; M and N are samples derived from mesoderm (abdominal ) and neurocrest & (thoracic) smooth muscle cells, respectively.
Protein kinase C activity: Protein kinase C activity was determined using a method of a previously published procedure with modifications. Wrenn, R.W. et al. (supra). […] Each of these fractions was analyzed for total PKC activity in the presence and absence of calcium chloride as described previously. […]

The next test deals with Rabbit aortic cells. Put plainly: Mitogenesis in rabbit aortic cells. Format: cell-based. How it is done: For each of the following experiments, aortic smooth muscle cells were obtained from 2-3 lb. New Zealand rabbits; these cells were cultured as described above, and evaluated for their responses to Hcy.
The test system of test [2] is N-VSMC. In words: Cell proliferation (cell number) of N-VSMC cultures. Format: cell-based, chicken. The settings on record: 0.01 to 100 μM for 36 h.
The test system of a further test is c-myb. Put plainly: c-myb expression in TA-VSMCs. Format: cell-based.

Bounds are passed on as bounds.

As for `N[C@@H](CCS)C(=O)O` [homocysteine], the DNA synthesis increased in the test with N-VSMC [1] (N-VSMC incubated with 0.01 to 4000 μM homocysteine, dose dependent and saturable) was found to be 12 fold. The “DNA synthesis at high concentration” value with N-VSMC [1] (homocysteine concentrations above 300 μM) is “completely suppressed”. In addition, the DNA synthesis increased with N-VSMC [1] (neural crest derived smooth muscle cells) was found to be 5 fold. The “distribution of PKC activity” value with protein kinase C is given as “significant increase in membrane-associated PKC”. In addition, the mitogenic response result in the test on Rabbit aortic cells is listed as “robust mitogenic response”. The “cell number in the absence of serum” value in the test with N-VSMC [2] was “no increase in cell number”. Also, in the test on c-myb, the c-myb synthesis result was “dose-dependent increase” and the “concentration of maximal effect on c-myb synthesis” value is on record as < 2.5 mM.

These data come from patent publication US6469027B1, “N-methyl-D-aspartate (NMDA) receptor blockers for the prevention of atherosclerosis” (The Board of Regents of the University of Nebraska, priority 1996, dated 2002).
